As a reminder, the IC50 is the concentration at which inhibition is half-maximal.

Test [1] concerns the target T1, Bcl-2 protein (histag-Bcl-2, UniProtKB P10415) (Homo sapiens, UniProt P10415).
T1 construct: His tag
Description: Inhibition of Bcl-2 by the fluorescence polarisation technique. The class given is binding. The note with it: fluorescence polarisation, 2 hours incubation; read-out: IC50 (nM) Bcl-2 FP. Here is the method: The fluorescence polarisation tests were carried out on microplates (384 wells). The Bcl-2 protein, labelled (histag-Bcl-2 such that Bcl-2 corresponds to the UniProtKB® primary accession number: P10415), at a final concentration of 2.50×10^−8 M, is mixed with a fluorescent peptide (Fluorescein-[…]), at a final concentration of 1.00×10^−8M in a buffer solution (Hepes 10 mM, NaCl 150 mM, Tween20 0.05%, pH 7.4), in the presence or absence of increasing concentrations of test compounds. After incubation for 2 hours, the fluorescence polarisation is measured.
In general terms: Polarisation of emitted light reports the rotation of a fluorescent probe.

The test system of test [2] is RS4;11 leukaemia tumour line. Put plainly: In vitro cytotoxicity (MTT) on RS4;11. The class given is cell-based. The note with it: Homo sapiens; RS4;11 cells, 48 hours exposure. Here is the method:
The cytotoxicity studies were carried out on the RS4;11 leukaemia tumour line.
The cells are distributed onto microplates and exposed to the test compounds for 48 hours.
The cell viability is then quantified by a colorimetric assay, the Microculture Tetrazolium Assay (Cancer Res., 1987, 47, 939-942).

Structures can show the parent of a compound that is named as a salt.

T1 sequence (P10415 whole entry): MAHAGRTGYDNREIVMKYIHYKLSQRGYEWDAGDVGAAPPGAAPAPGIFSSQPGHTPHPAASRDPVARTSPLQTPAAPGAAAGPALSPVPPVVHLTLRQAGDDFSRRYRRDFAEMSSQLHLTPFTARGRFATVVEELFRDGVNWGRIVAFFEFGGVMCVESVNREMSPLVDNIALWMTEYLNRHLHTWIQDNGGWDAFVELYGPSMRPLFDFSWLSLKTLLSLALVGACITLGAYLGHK

Turning to `C[C@@H]1Cc2ccccc2CN1C(=O)c1cc2c(cc1-c1cc(C(=O)N(c3ccc(O)cc3)c3ccc4c(ccn4C)c3)c3n1CCCC3)OCO2` [Example 1, N-(4-Hydroxyphenyl)-3-(6-{[(3R)-3-methyl-3,4-dihydroisoquinolin-2(1H)-yl]carbonyl}-1,3-benzodioxol-5-yl)-N-(1-methyl-1H-indol-5-yl)-5,6,7,8-tetrahydro-indolizine-1-carboxamide], the IC50 in test [1] was 17.9 nM; in test [2] it was 11.3 nM.
For `C[C@@H]1Cc2ccccc2CN1C(=O)c1cc2c(cc1-c1cc(C(=O)N(c3ccc(O)cc3)c3ccc4c(ccn4CCN4CCOCC4)c3)c3n1CCCC3)OCO2` [Example 2, N-(4-Hydroxyphenyl)-3-(6-{[(3R)-3-methyl-3,4-dihydroisoquinolin-2(1H)-yl]carbonyl}-1,3-benzodioxol-5-yl)-N-{1-[2-(morpholin-4-yl)ethyl]-1H-indol-5-yl}-5,6,7,8-tetrahydroindolizine-1-carboxamide hydrochloride] the same measures were 17 nM and 36 nM.
For `C[C@@H]1Cc2ccccc2CN1C(=O)c1ccc(Cl)cc1-c1cc(C(=O)N(c2ccc(O)cc2)c2ccc3c(ccn3C)c2)c2n1CCNC2` [Example 3, 6-(5-Chloro-2-{[(3R)-3-methyl-3,4-dihydroisoquinolin-2(1H)-yl]-carbonyl}phenyl)-N-(4-hydroxyphenyl)-N-(1-methyl-1H-indol-5-yl)-1,2,34-tetrahydropyrrolo[1,2-a]pyrazine-8-carboxamide hydrochloride], the IC50 in test [1] came out at 33.6 nM; in test [2], 66.5 nM.
On the same counts, the results for `O=C(c1ccc(Cl)cc1-c1cc(C(=O)N(c2ccc(O)cc2)c2ccc3c(ccn3CCN3CCOCC3)c2)c2n1CCCC2)N1CCc2ccccc2C1` [Example 4, 3-[5-Chloro-2-(3,4-dihydroisoquinolin-2(1H)-ylcarbonyl)phenyl]-N-(4-hydroxyphenyl)-N-{1-[2-(morpholin-4-yl)ethyl]-1H-indol-5-yl}-5,6,7,8-tetrahydro-indolizine-1-carboxamide] are 56.4 nM and 251 nM.
As to `O=C(c1ccc(Cl)cc1-c1cc(C(=O)N(c2ccc(O)cc2)c2ccc3c(c2)CCN3CCN2CCOCC2)c2n1CCCC2)N1CCc2ccccc2C1` [Example 5, 3-[5-Chloro-2-(3,4-dihydroisoquinolin-2(1H)-ylcarbonyl)phenyl]-N-(4-hydroxyphenyl)-N-{1-[2-(morpholin-4-yl)ethyl]-2,3-dihydro-1H-indol-5-yl}-5,6,7,8-tetrahydroindolizine-1-carboxamide], the figures for the IC50 in test [1] and in test [2] were 55.9 nM and 416 nM, respectively.
On to `C[C@@H]1Cc2ccccc2CN1C(=O)c1cc2c(cc1-c1cc(C(=O)N(c3ccc(O)cc3)c3ccc4c(ccn4C)c3)c3n1CCN(C)C3)OCCO2` [Example 6, N-(4-Hydroxyphenyl)-2-methyl-6-(7-{[(3R)-3-methyl-3,4-dihydroiso-quinolin-2(1H)-yl]carbonyl}-2,3-dihydro-1,4-benzodioxin-6-yl)-N-(1-methyl-1H-indol-5-yl)-1,2,3,4-tetrahydropyrrolo[1,2-a]pyrazine-8-carboxamide hydrochloride], for which the values for the IC50 in test [1] and in test [2] were 60.3 nM and 161 nM, respectively.
On the same counts, the results for `C[C@@H]1Cc2ccccc2CN1C(=O)c1ccc(Cl)cc1-c1cc(C(=O)N(c2ccc(O)cc2)c2ccc3c(ccn3C)c2)c2n1CCN(C)C2` [Example 7, 6-(5-Chloro-2-{[(3R)-3-methyl-3,4-dihydroisoquinolin-2(1H)-yl]-carbonyl}phenyl]-N-(4-hydroxyphenyl)-2-methyl-N-(1-methyl-1H-indol-5-yl)-1,2,3,4-tetrahydropyrrolo[1,2-a]pyrazine-8-carboxamide] are 46.4 nM and 108 nM.
For `C[C@@H]1Cc2ccccc2CN1C(=O)c1ccc(Cl)cc1-c1cc(C(=O)N(c2ccc(O)cc2)c2ccc3c(ccn3CCN3CCOCC3)c2)c2ccccn12` [Example 8, 3-(5-Chloro-2-{[(3R)-3-methyl-3,4-dihydroisoquinolin-2(1H)-yl]-carbonyl}phenyl)-N-(4-hydroxyphenyl)-N-{1-[2-(morpholin-4-yl)ethyl]-1H-indol-5-yl}indolizine-1-carboxamide hydrochloride] the same measures were 24.5 nM and 20.5 nM.
On the same counts, the results for `C[C@@H]1Cc2ccccc2CN1C(=O)c1ccc(F)cc1-c1cc(C(=O)N(c2ccc(O)cc2)c2ccc(F)cc2)c2n1CCNC2` [Example 9, 6-(5-Fluoro-2-{[(3R)-3-methyl-3,4-dihydroisoquinolin-2(1H)-yl]carbonyl}-phenyl)-N-(4-fluorophenyl)-N-(4-hydroxyphenyl)-1,2,3,4-tetrahydropyrrolo[1,2-a]-pyrazine-8-carboxamide hydrochloride] are 40.6 nM and 780 nM.
`Cc1ccc(N(C(=O)c2cc(-c3cc(F)ccc3C(=O)N3Cc4ccccc4C[C@H]3C)n3c2CNCC3)c2ccc(O)cc2)cc1F` [Example 10, 6-(5-Fluoro-2-{[(3R)-3-methyl-3,4-dihydroisoquinolin-2(1H)-yl]-carbonyl}phenyl)-N-(3-fluoro-4-methylphenyl)-N-(4-hydroxyphenyl)-1,2,3,4-tetrahydropyrrolo[1,2-a]pyrazine-8-carboxamide hydrochloride]: the figures for the IC50 in test [1] and in test [2] were 24.7 nM and 439 nM, respectively.
As to `C[C@@H]1Cc2ccccc2CN1C(=O)c1cc2c(cc1-c1cc(C(=O)N(c3ccc(O)cc3)c3ccc4c(cnn4C)c3)c3n1CCNC3)OCO2` [Example 11, N-(4-Hydroxyphenyl)-6-(6-{[(3R)-3-methyl-3,4-dihydroisoquinolin-2(1,H)-yl]carbonyl}-1,3-benzodioxol-5-yl)-N-(1-methyl-1H-indazol-5-yl)-1,2,3,4-tetrahydropyrrolo[1,2-a]pyrazine-8-carboxamide hydrochloride], the IC50 was 10.9 nM in test [1] and 83.7 nM in test [2].
Turning to `C[C@@H]1Cc2ccccc2CN1C(=O)c1cc2c(cc1-c1cc(C(=O)N(c3ccc(O)cc3)c3cc[n+](C)cc3)c3ccccn13)OCO2` [Example 71, 4-[(4-Hydroxyphenyl){[3-(6-{[(3R)-3-methyl-3,4-dihydroisoquinolin-2(1H)-yl]carbonyl}-1,3-benzodioxol-5-yl)indolizin-1-yl]carbonyl}amino]-1-methyl-pyridinium chloride], the IC50 in test [1] was 49 nM.
On the same count and under the same terms, the value for `CN(C(=O)c1cc(-c2cc3c(cc2C(=O)N2CCc4ccccc4C2)OCO3)n2c1CNCC2)c1ccc(O)cc1` [Example 84, 6-[6-(3,4-Dihydroisoquinolin-2(1H)-ylcarbonyl)-1,3-benzodioxol-5-yl]-N-(4-hydroxyphenyl)-N-methyl-1,2,3,4-tetrahydropyrrolo[1,2-a]pyrazine-8-carboxamide] was 525 nM.
Regarding `CCN(C(=O)c1cc(-c2cc3c(cc2C(=O)N2CCc4ccccc4C2)OCO3)n2c1CNCC2)c1ccc(O)cc1` [Example 85, 6-[6-(3,4-Dihydroisoquinolin-2(1H)-ylcarbonyl)-1,3-benzodioxol-5-yl]-N-ethyl-N-(4-hydroxyphenyl)-1,2,3,4-tetrahydropyrrolo[1,2-a]pyrazine-8-carboxamide], the IC50 in test [1] worked out at 243 nM.
